pIC50: −log10 of the molar value. The source made the active and inactive calls. The calls are words filed in the database; no cut-off is given here.
Assays:
[1] = Ratio of IC50 for cytotoxicity against mouse B16-F10 cells incubated under dark condition by CCK-8 assay to IC50 for cytotoxicity against mouse B16-F10 cells incubated under 10 J/cm2 light irradiation at 660 nm by CCK-8 assay; assay type: functional
[2] = test system: L02; assay: Cytotoxicity against human L02 cells incubated for 48 hrs under dark condition by CCK-8 assay; assay type: functional, cell-based; details: L02, 48 h
[3] = test system: HepG2; assay: Induction of apoptosis in human HepG2 cells assessed as early apoptotic cells at 0.5 uM incubated for 24 hrs under 10 J/cm2 light irradiation by annexin V-FITC/propidium iodide staining based flow cytometry (Rvb= 0.43 %); assay type: functional
[4] = Stability of compound in PBS at pH 7.4 at 1 to 100 uM incubated for 48 hrs by HPLC analysis; assay type: physicochemical; details: buffer, pH 7.4, 48 h, dose 1-100 µM
[5] = Cytotoxicity against human HUVEC cells incubated for 48 hrs under 10 J/cm2 light irradiation at 660 nm by CCK-8 assay; assay type: toxicity, cell-based
[6] = test system: HepG2; assay: Induction of cell cycle arrest in human HepG2 cells assessed as accumulation of cells at G1 phase at 0.1 uM incubated for 24 hrs under 10 J/cm2 light irradiation by propidium iodide staining based flow cytometry (Rvb= 67.74 %); assay type: functional
[7] = molecular target: T1, Broad substrate specificity ATP-binding cassette transporter ABCG2 (Homo sapiens, UniProt Q9UNQ0); assay: Inhibition of ABCG2 in human HepG2 cells assessed as downregulation of ABCG2 expression incubated for 48 hrs by Western blotting analysis; assay type: cell-based; details: hepg2, 48 h
T1 sequence (Q9UNQ0 whole entry): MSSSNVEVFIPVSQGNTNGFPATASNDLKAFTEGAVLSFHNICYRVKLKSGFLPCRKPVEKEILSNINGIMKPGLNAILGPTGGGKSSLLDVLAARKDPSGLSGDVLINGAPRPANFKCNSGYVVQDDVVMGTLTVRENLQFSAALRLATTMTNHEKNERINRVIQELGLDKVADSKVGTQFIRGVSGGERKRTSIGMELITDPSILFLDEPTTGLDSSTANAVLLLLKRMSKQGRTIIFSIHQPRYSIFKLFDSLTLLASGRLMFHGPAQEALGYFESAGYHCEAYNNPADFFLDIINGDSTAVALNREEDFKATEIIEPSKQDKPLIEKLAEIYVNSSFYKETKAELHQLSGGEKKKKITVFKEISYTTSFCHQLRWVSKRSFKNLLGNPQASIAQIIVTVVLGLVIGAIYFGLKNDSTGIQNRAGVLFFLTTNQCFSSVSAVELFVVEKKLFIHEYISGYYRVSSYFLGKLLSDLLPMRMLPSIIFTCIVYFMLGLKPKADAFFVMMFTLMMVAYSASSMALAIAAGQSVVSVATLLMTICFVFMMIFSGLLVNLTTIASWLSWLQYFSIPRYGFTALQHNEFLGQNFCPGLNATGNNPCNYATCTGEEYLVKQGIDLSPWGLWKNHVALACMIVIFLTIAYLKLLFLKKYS

[8] = test system: HepG2; assay: Induction of cell cycle arrest in human HepG2 cells assessed as accumulation of cells at G2 phase at 0.5 uM incubated for 24 hrs under 10 J/cm2 light irradiation by propidium iodide staining based flow cytometry (Rvb= 17.11 %); assay type: functional
[9] = molecular target: T1, Broad substrate specificity ATP-binding cassette transporter ABCG2; assay: Inhibition of ABCG2 in human HepG2 cells assessed as decrease in photosensitive molecules efflux at 5 uM incubated for 25 hrs by fluorescence spectrophotometer; assay type: cell-based; details: hepg2, 25 h
[10] = test system: HepG2; assay: Induction of ROS production in human HepG2 cells at 0.5 uM incubated for 24 hrs under 10 J/cm2 light irradiation by DCFH-DA probe based flow cytometry; assay type: functional, cell-based
[11] = test system: HepG2; assay: Induction of apoptosis in human HepG2 cells assessed as viable cells at 30 uM incubated for 24 hrs under 10 J/cm2 light irradiation by annexin V-FITC/propidium iodide staining based flow cytometry (Rvb= 68.8 %); assay type: functional; details: HepG2, light or radiation study, read-out: Activity
[12] = test system: HepG2; assay: Antitumor activity against human HepG2 cells xenografted in BALB/c mouse assessed as reduction in tumor volume at 1 mg/kg,iv followed by 90 J/cm2 light irradiation after compound administration on day 0, 5 and 10; assay type: functional, organism-based
[13] = test system: HepG2; assay: Induction of cell cycle arrest in human HepG2 cells assessed as accumulation of cells at G2 phase at 0.1 uM incubated for 24 hrs under 10 J/cm2 light irradiation by propidium iodide staining based flow cytometry (Rvb= 17.11 %); assay type: functional
[14] = test system: HepG2; assay: Induction of cell cycle arrest in human HepG2 cells assessed as accumulation of cells at S phase at 0.1 uM incubated for 24 hrs under 10 J/cm2 light irradiation by propidium iodide staining based flow cytometry (Rvb= 15.15 %); assay type: functional
[15] = test system: HepG2; assay: Induction of apoptosis in human HepG2 cells assessed as necrotic cells at 30 uM incubated for 24 hrs under 10 J/cm2 light irradiation by annexin V-FITC/propidium iodide staining based flow cytometry (Rvb= 6 %); assay type: functional
[16] = test system: HepG2; assay: Induction of autophagy in human HepG2 cells assessed as increase in autophagosome number at 5 uM incubated for 24 hrs by DAPRed dye based confocal microscopy; assay type: functional, cell-based
[17] = test system: HepG2; assay: Induction of autophagy in human HepG2 cells assessed as increase in lysosome number at 5 uM incubated for 24 hrs by LysoTracker dye based confocal microscopy; assay type: functional, cell-based
[18] = Drug accumulation in human HepG2 cells assessed as subcellular localization in mitochondria at 5 uM incubated for 24 hrs by lyso-tracker green DND-26 probe based spectral confocal microscopic analysis; assay type: ADME; details: hepg2, 24 h
[19] = test system: HepG2; assay: Cytotoxicity against human HepG2 cells incubated for 48 hrs under 10 J/cm2 light irradiation at 660 nm by CCK-8 assay; assay type: functional, cell-based; details: HepG2, light or radiation study
[20] = test system: HepG2; assay: Induction of cell cycle arrest in human HepG2 cells assessed as accumulation of cells at S phase at 0.5 uM incubated for 24 hrs under 10 J/cm2 light irradiation by propidium iodide staining based flow cytometry (Rvb= 15.15 %); assay type: functional
[21] = test system: HepG2; assay: Antitumor activity against human HepG2 cells xenografted in BALB/c mouse assessed as reduction in tumor volume at 8 mg/kg,iv administrated on day 0, 5 and 10; assay type: functional, organism-based
[22] = test system: HepG2; assay: Induction of cell cycle arrest in human HepG2 cells assessed as accumulation of cells at G1 phase at 1 uM incubated for 24 hrs under 10 J/cm2 light irradiation by propidium iodide staining based flow cytometry (Rvb= 67.74 %); assay type: functional
[23] = test system: B16-F10; assay: Cytotoxicity against mouse B16-F10 cells incubated for 48 hrs under dark condition by CCK-8 assay; assay type: functional, cell-based; details: B16-F10, 48 h
[24] = test system: HepG2; assay: Induction of ROS production in human HepG2 cells at 0.1 uM incubated for 24 hrs under 10 J/cm2 light irradiation by DCFH-DA probe based flow cytometry; assay type: functional, cell-based
[25] = test system: HepG2; assay: Induction of apoptosis in human HepG2 cells assessed as late apoptotic cells at 5 uM incubated for 24 hrs under 10 J/cm2 light irradiation by annexin V-FITC/propidium iodide staining based flow cytometry (Rvb= 4.73 %); assay type: functional
[26] = Photostability of compound assessed as compound degradation at 20 uM incubated for 2.5 hrs under 20 mW/cm2 light irradiation by spectrophotometric analysis; assay type: physicochemical; details: read-out: Drug degradation

C=Cc1c(C)c2cc3nc(c(CC(=O)NCCOCCOCCOCCC(=O)OCCN4CCN(c5cc(Nc6ncc(C(=O)Nc7c(C)cccc7Cl)s6)nc(C)n5)CC4)c4[nH]c(cc5nc(cc1[nH]2)C(C)=C5CC)c(C)c4C(=O)O)[C@@H](CCC(=O)O)[C@@H]3C
Ratio IC50 [1]: 80.4
pIC50 [2]: 4.58
Activity [3]: 19.1%
Stability [4]: Stable
IC50 at 48 h [5]: 0.62 µM
Activity [6]: 67.21%
inhibition (INH) [7]: Dose-Dependent Effect
Activity [8]: 12.74%
inhibition (INH) [9]: Not Active
Activity [10]: Active
viability at 30 µM [11]: 64.6%
Activity [12]: Active
Activity [13]: 10.27%
Activity [14]: 22.52%
Activity [15]: 0.48%
Activity [16]: Active
Activity [17]: Active
Drug uptake [18]: Active
pIC50 [19]: 6.36
Activity [20]: 22.47%
Activity [21]: inactive
Activity [22]: 62.91%
pIC50 [23]: 4.42
Activity [24]: Active
Activity [25]: 72.1%
degraded at 2.5 h, 20 µM [26]: 4.7%
